Data from patent US20130287688A1, “NOVEL COMPOSITIONS AND USES OF ANTI-HYPERTENSION AGENTS FOR CANCER THERAPY” (XTUIT PHARMACEUTICALS, INC., priority 2010, published 2013).

Tests used:
E0771 breast tumors = experiment: Interstitial hydraulic conductivity of excised tumor tissue; format: in vivo, mice; details: 40 mg/kg i.p. daily, 6 days
Procedure: FIG. 31 is a bar graph showing that angiotensin inhibitors increase fluid flow in tumors. Interstitial hydraulic conductivity was measured by the flow rate of media through freshly excised tumor tissue. […] Animal number n=6.
Oxygenation was then studied using phosphorescence quenching microscopy. […] This decrease in tumor hypoxia was confirmed by using pimonidazole staining (FIGS. 29D and 30). To determine if losartan also increases nanomedicine delivery, which is dependent on both vascular supply and penetration across vessel walls into tumor tissue, nanoparticle penetration was measured using intravital multiphoton microscopy. Nanoparticle penetration rates were quantified as transvascular mass flux per unit vascular surface area and transvascular concentration difference, termed as the effective permeability. […] Penetration rates are largely dependent on fluid flow through the viscoelastic and tortuous tumor interstitium, which is a function of interstitial hydraulic conductivity. It was determined that losartan also increases the hydraulic conductivity of E0771 tumors (FIG. 31), likely through its anti-matrix effects, and a mathematical model (Chauhan V P, et al., Nature Nanotechnology. 2012; advance online publication) was used to confirm that this can improve the penetration rate of all sizes of nanomedicines (FIG. 32). […]

[1] = system: L3.6 pl orthotopic pancreatic tumors; experiment: Collagen I immunostaining of tumor sections; format: in vivo, SCID mice; details: 20 mg/kg/day, two weeks (FIG. 5B)
Procedure: Human soft tissue sarcoma (HSTS26T) and human melanoma (Mu89) tumors were grown subcutaneously in the legs and dorsal skin fold chamber of severe combined immunodeficient (SCID) mice (Leunig M, et al. (1992) Cancer Res 52:6553-6560). Human pancreatic adenocarcinoma cells (L3.6PL) were grown orthotopically in the pancreas of SCID mice. L3.6PL tumors were induced with a sub-capsular injection of one million cells in the tail of the pancreas. Tumor sizes were monitored in spontaneous FVB/N-Tg (MMTV-PyVT) 634MU1/J mice and tumors selected for treatment when they reached a size of 4 to 6 mm in diameter (Guy C T et al. (1992) Mol Cell Biol 12:954-961).
(§1) Cozaar (losartan potassium) tablets were ground using a mortar and pestle. The powder was then dissolved in water to obtain a concentration of 2.5 mg/ml. The solution was then filtered and stored in a sterile container.
Frozen sections were cut into 10 μm sections for immunohistochemistry and imaging. Collagen I was detected using the LF-67 antibody (1:100 dilution) with a previously described protocol (Znati C A, et al. (2003) Clin Cancer Res 9:5508-5513). TSP-1 was detected with a goat anti-human antibody (1:50 dilution), which cross-reacts with mice (sc-12312, Santa Cruz Biotechnology Inc., Santa Cruz, Calif.). For collagen and TSP-1 analysis, images at 20× magnification were taken randomly from each slide. The collagen and TSP-1 content was determined by measuring the number of pixels above a threshold value that was set based on the average intensity value of pixels from all slides under analysis. The background-signal intensity for both collagen I and thrombospondin-1 immunostaining was low and uniform.

Mu89 tumors = experiment: Virus treatment and tumor growth delay; format: in vivo, SCID mice
Procedure: (§2) Each arm (control and treated) was subsequently divided into HSV treated and non-HSV treated groups. Tumors that had reached 60 mm^3 after two weeks were selected for i.t. HSV injections. Tumors were treated with 10 μl i.t. injections of either PBS or 2.5×10^5 transducing units (t.u.) of oncolytic HSV MGH2 (gift from E. Antonio Chiocca, Ohio State University, Columbus, Ohio). Two i.t. injections of oncolytic HSV separated by 24 hrs were administered. The injections were done with a Harvard Apparatus Standard Pump 22 infusion/withdraw syringe pump system (Holliston, Mass.) at a flow rate of 4 μl/min. Tumors were measured every 2 to 3 days. Tumor volume was estimated as: V=AB^2/2, where V is the tumor volume; A and B are the maximum and minimum diameters of the tumor as measured with calipers.

HSTS26T tumors [2] = experiment: Virus treatment and tumor growth delay; format: in vivo, SCID mice
Procedure: as §2

HSTS26T tumors [3] = experiment: Second harmonic generation (SHG) imaging of fibrillar collagen in dorsal skin fold chamber tumors; format: in vivo, SCID mice; details: for decrease in SHG levels (collagen): end of 15 days
Procedure: as §1
Second Harmonic Imaging (SHG) imaging was performed in dorsal chamber tumors with a custom-built multiphoton laser-scanning microscope (Brown E, et al. (2003) Nat Med 9:796-800). Polarized light from a Ti:Sapphire laser (Mai-Tai Broadband: Spectra-Physics, Mountain View, Calif.) was converted to circularly polarized light using a zero order quarter wave plate (Newport Corporation, Irvine, Calif.). An excitation wavelength of 810 nm and detected SHG signals at 405 nm was used. SCID mice bearing HSTS26T tumors in dorsal chambers were either treated with losartan (10, 20 or 60 mg/kg/day) or saline for the duration of the dose response experiment (15 days). Vascular markers were used to locate 4 regions of interest in each mouse and periodically returned to the same region of SHG imaging. SHG images were analyzed with a custom-built Matlab (The MathWorks, Inc., Natick, Mass.) code. The fraction of the region of interest (ROI) that was positive for the SHG signal was normalized to the amount of SHG signal obtained on day 1 of the dose response study (before initiation of losartan or saline treatment).

E0771 tumors = experiment: Solid stress (tumor opening technique); parameters: species or system mice; details: mouse, in vivo
Procedure: Solid stress was assessed using an ex vivo technique involving the measurement of the extent of tumor tissue relaxation (tumor opening relative to tumor diameter) following a stress-releasing incision, with larger openings indicating higher stress.
When the tumors reached a size of −1 cm in diameter, the mice were anesthetized. Subsequently, each tumor was excised, washed with Hanks' Balanced Salt Solution (HBSS) and its three dimensions were measured. Each tumor was cut along its longest axis, to a depth of 80% of its shortest dimension, using a scalpel. The tumors were allowed to relax for 10 minutes in HBSS to diminish any transient, poro-elastic responses. Afterwards, the opening resulting from the cut was measured at the middle of the cut at the surface of the tumor. Solid stress is proportional to the size of the opening relative to the size of the dimension perpendicular to the cut.

[4] = losartan two weeks before i.t. injection of HSV

CCCCc1nc(Cl)c(CO)n1Cc1ccc(-c2ccccc2-c2nn[nH]n2)cc1 [losartan]
interstitial hydraulic conductivity (E0771 breast tumors): large increase
reduction in collagen I immunostaining [1]: 50%
tumor growth rate (Mu89 tumors; losartan alone): did not affect
tumor size relative to the starting treatment size (Mu89 tumors; losartan and HSV, 4 weeks after the virus injection, all tumors): 3 fold
tumor growth (Mu89 tumors; [4]): significantly delayed the growth
tumor growth rate (HSTS26T tumors [2]; losartan alone): did not affect
mice whose tumor volume remained stable for up to 9 weeks (HSTS26T tumors [2]; losartan and HSV): 50%
tumor growth (HSTS26T tumors [2]; [4]): significantly delayed the growth
intratumoral SHG signal intensity (HSTS26T tumors [3]; 10 mg/kg/day i.p.): did not have a significant effect
decrease in SHG levels (collagen) (HSTS26T tumors [3]; 10 mg/kg/day i.p.): 20%
intratumoral SHG signal intensity (HSTS26T tumors [3]; 20 mg/kg/day i.p.): significantly reduced
decrease in SHG levels (collagen) (HSTS26T tumors [3]; 20 mg/kg/day i.p.): 33%
intratumoral SHG signal intensity (HSTS26T tumors [3]; 60 mg/kg/day i.p.): significantly reduced
decrease in SHG levels (collagen) (HSTS26T tumors [3]; 60 mg/kg/day i.p.): 67%
solid stress (E0771 tumors): reduces solid stress
